These results are taken from patent US11766442B2, “T-cell lymphoma treatments” (City of Hope, priority 2017, dated 2023).

One series deals with HUT78 cells. In words: Cell viability assay using HUT78 cells in a CELLTITER-GLO assay. The series is classed as cell-based, human. On the procedure: Compound (1) and FK-228 (an anticancer agent used in CTCL) were tested in a cell viability assay using HUT78 cells in a CELLTITER-GLO® assay. […] See, FIG. 1B.
Compound (2) (FIG. 8A) was tested in a cell viability assay using HUT78 cells in a CELLTITER-GLO® assay. To determine IC50 value of Compound (2) against human CTCL HUT78 cells, viability assay was performed using CELLTITER-GLO® Reagent as described by the supplier (Promega, Madison, WI). Briefly, cells (7500/well) were seeded in opaque 96-well plates and exposed to Compound (1) in a dose-dependent manner for 72 h at 37° C. in 5% CO2. After 72 h treatment with compound (1), CELLTITER-GLO® Reagent ([…]) was added to 96-well plates. Viable cells which are metabolically active are directly proportional to the ATP present. Luminescent signals correlate with the amount of ATP present in cells. After 10 min incubation with CELLTITER-GLO® Reagent, luminescence was measured at an integration time of 1 second/well using an automated BMG plate reader. Dimethyl sulfoxide (DMSO) was used as the vehicle control. Each experiment was conducted in triplicate. IC50 values were determined using CalcuSyn software (Biosoft).

Series [1] concerns HUT78 CTCL mouse xenograft. Kind of series: HUT78 CTCL mouse xenograft model. Format: in vivo. The following applies: for Drug associated toxicity observed in mice: compound (1) 20 mg/kg gavage, FK-228 2 mg/kg intraperitoneal twice weekly. As to the method:
Compound (1) and FK-228 were tested for tumor growth inhibition in CTCL mouse xenograft models. One group of mice was treated with 20 mg/kg of compound (1) using gavage during 3 consecutive days, followed by 3 consecutive days of break. Another group of mice was treated with 2 mg/kg of FK-228 intraperitoneal, twice weekly. Mice with no treatment served as a control. The tumor volume, size, and weight were compared 12 days after the treatments started.

For series [2], the system named is HUT78 CTCL cells. In words: Carboxy-fluorescein succinimidyl ester (CFSE) staining cell proliferation assay. Format: cell-based, human. The following applies: 1.0, 10 or 100 nM, incubated 72 h. On the procedure: Compound (1) was tested in a carboxy-fluorescein succinimidyl ester (CFSE) stained HUT78 CTCL proliferation assay. HUT78 cells were stained with CFSE dye. The CFSE stained cells were plated into 96-well plates in growth medium. The resulted cells were treated with 1.0, 10, or 100 nM solution of compound (1), and then incubated for 72 h under the growth conditions. After, optical densities were read on a multiwell scanning spectrophotometer at wavelength 488 nm.

Series [3] has as its system HUT78 CTCL cells. On the procedure:
Compound (1) was tested in a cell proliferation assay using HUT78 CTCL cells. The cells were treated with 0.3, 1, 3, 10, 30, or 100 nM concentration of compound (1), and then incubated for 48 h or 72 h under the growth conditions. […] Cells cultured in the absence of compound (1) served as a control.

Series [4] concerns HUT78 CTCL cells. Kind of series: Cell apoptosis assay using HUT78 CTCL cells. The series is classed as cell-based, human. The settings on record: incubated 72 h, read-out: IC50, apoptosis induction. On the procedure: Compound (1) was tested in a cell apoptosis assay using HUT78 CTCL cells.

Read-outs that look alike come from different tables or passages of the source.

The compound `C/C=C1\NC(=O)[C@H]2CSSCC/C=C/[C@H](CC(=O)N[C@H](C(C)C)C(=O)N2)OC(=O)[C@H](C(C)C)NC1=O` [FK-228, Romidepsin, reference compound] yielded an IC50 in the series on HUT78 cells (Homo sapiens) of 6.95 nM.
Take `C/C=C1\NC(=O)[C@H]2CSSCC/C=C/[C@H](CC(=O)N[C@H](C(C)C)C(=O)N2)OC(=O)[C@H](C(C)C)NC1=O` [romidespin, romidepsin, reference compound]: the “Drug associated toxicity observed in mice” value in series [1] was “Ascites and diarrhea”.
On to `CN1C(=O)[C@@]23C[C@](C)(C#N)[C@H](c4ccc5c(c4)OCO5)N2C(=O)C1(C)S3=S` (some centres unmarked) [compound (1)], for which the IC50 came to 6.61 nM with HUT78 cells; 75 nM with HUT78 CTCL cells [3] (read-out: IC50, cell proliferation, incubated 48 h); 10 nM in the series with HUT78 CTCL cells [3] (read-out: IC50, cell proliferation, incubated 72 h); 19.7 nM with HUT78 CTCL cells [4]. Besides, the “Inhibition of proliferation of CFSE stained HUT78 CTCL cells” value in the series on HUT78 CTCL cells [2] is “inhibits proliferation of HUT78 CTCL cells”. The “Reduction of the tumor size” value in series [1] (20 mg/kg gavage, 3 consecutive days on, 3 days break, 12 days after treatment start) is recorded as “results in the reduction of the tumor size”. The Tumor weight inhibition in series [1] (20 mg/kg gavage, 3 consecutive days on, 3 days break, 12 days after treatment start, P<0.001) was found to be 89.8%. The “Tumor growth inhibition (tumor volume)” value in series [1] (20 mg/kg gavage, 3 consecutive days on, 3 days break, compared 12 days after treatment start, versus FK-228 regimen and vehicle) was “results in tumor growth inhibition”. In addition, in series [1], the “Drug associated toxicity observed in mice” value is listed as “no toxicity was observed”.
